The values below come from patent US9493446B2, “Orexin receptor antagonists which are [ortho bi-(hetero-)aryl]-[2-(meta bi-(hetero-)aryl)-pyrrolidin-1-yl]-methanone derivatives” (Actelion Pharmaceuticals Ltd, priority 2012, dated 2016).

Read-outs that look alike come from different tables or passages of the source.

As usually defined, the IC50 is the concentration that inhibits the measured activity by half.

One experiment has as its target human orexin-2 receptor (Homo sapiens (Human), UniProt O43614). The experiment is described as follows: Intracellular calcium measurement (FLIPR), CHO cells expressing human orexin-2 receptor, 3 nM orexin-A. The experiment is classed as cell-based. Conditions: read-out: IC50 OX2. The essentials: (§1)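 Antagonist is added 120 min before agonist. Fluo-4 AM-loaded CHO cells carry human orexin-1 or orexin-2 receptor, and calcium is read by FLIPR.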

A further experiment has as its target orexin-1 (Homo sapiens (Human), UniProt O43613). Nature of the experiment: Intracellular calcium measurement (FLIPR), CHO cells expressing human orexin-1 receptor, 3 nM orexin-A. Conditions: read-out: IC50 OX1. Type of experiment: cell-based. The essentials: as §1
Where [1] appears, read: CHO cells expressing human orexin-2 receptor, FLIPR, 3 nM orexin-A, geometric mean if determined several times.
The mark [2] stands for this setting: CHO cells expressing human orexin-1 receptor, FLIPR, 3 nM orexin-A, geometric mean if determined several times.

orexin-1, sequence (O43613 whole entry): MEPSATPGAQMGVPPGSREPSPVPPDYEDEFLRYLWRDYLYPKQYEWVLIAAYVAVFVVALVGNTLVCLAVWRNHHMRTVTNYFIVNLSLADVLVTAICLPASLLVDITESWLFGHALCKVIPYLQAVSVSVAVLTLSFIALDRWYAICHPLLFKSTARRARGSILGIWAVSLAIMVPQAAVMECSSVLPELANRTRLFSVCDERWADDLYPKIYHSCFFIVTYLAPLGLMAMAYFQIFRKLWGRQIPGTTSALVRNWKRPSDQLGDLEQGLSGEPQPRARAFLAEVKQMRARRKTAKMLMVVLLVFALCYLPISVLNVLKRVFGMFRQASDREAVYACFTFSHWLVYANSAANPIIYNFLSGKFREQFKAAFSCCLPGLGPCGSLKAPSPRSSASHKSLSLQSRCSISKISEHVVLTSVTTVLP
human orexin-2 receptor, sequence (O43614 whole entry): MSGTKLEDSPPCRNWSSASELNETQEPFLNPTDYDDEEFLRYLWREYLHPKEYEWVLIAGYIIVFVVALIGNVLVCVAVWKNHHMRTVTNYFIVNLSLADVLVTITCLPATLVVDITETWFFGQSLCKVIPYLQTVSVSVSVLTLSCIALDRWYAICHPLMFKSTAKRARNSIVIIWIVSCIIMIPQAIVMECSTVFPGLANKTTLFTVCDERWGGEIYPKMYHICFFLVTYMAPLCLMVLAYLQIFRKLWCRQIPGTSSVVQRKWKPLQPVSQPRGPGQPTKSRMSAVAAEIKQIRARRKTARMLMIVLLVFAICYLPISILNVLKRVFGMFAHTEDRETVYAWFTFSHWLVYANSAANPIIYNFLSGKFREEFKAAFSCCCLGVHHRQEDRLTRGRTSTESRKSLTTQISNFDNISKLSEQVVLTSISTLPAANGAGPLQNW

As to `COc1ccc(-c2ccccc2)c(C(=O)N2CCC[C@H]2c2nc(-c3ccccc3OC(F)(F)F)no2)c1` [compound 152, (4-Methoxy-biphenyl-2-yl)-{(S)-2-[3-(2-trifluoromethoxy-phenyl)-[1,2,4]oxadiazol-5-yl]-pyrrolidin-1-yl}-methanone], the IC50 is 35 nM at human orexin-2 receptor (setting [1]) and 9 nM on orexin-1 (setting [2]).
Taken in the same sequence, the figures for `O=C(c1[nH]cnc1-c1ccccc1)N1CCC[C@H]1c1nc(-c2ccccc2OC(F)(F)F)no1` [compound 153, (5-Phenyl-3H-imidazol-4-yl)-{(S)-2-[3-(2-trifluoromethoxy-phenyl)-[1,2,4]oxadiazol-5-yl]-pyrrolidin-1-yl}-methanone] were 460 nM and 781 nM.
With `O=C(c1cc(F)ccc1-n1nccn1)N1CCC[C@H]1c1nc(-c2ccccc2OC(F)(F)F)no1` [compound 155, (5-Fluoro-2-[1,2,3]triazol-2-yl-phenyl)-{(S)-2-[3-(2-trifluoromethoxy-phenyl)-[1,2,4]oxadiazol-5-yl]-pyrrolidin-1-yl}-methanone], the IC50 at human orexin-2 receptor (setting [1]) amounted to 43 nM; at orexin-1 (setting [2]) it was 174 nM.
Take `COc1ccc(-n2cccn2)c(C(=O)N2CCC[C@H]2c2nc(-c3ccccc3OC(F)(F)F)no2)c1` [compound 157, (5-Methoxy-2-pyrazol-1-yl-phenyl)-{(S)-2-[3-(2-trifluoromethoxy-phenyl)-[1,2,4]oxadiazol-5-yl]-pyrrolidin-1-yl}-methanone]: the IC50 on human orexin-2 receptor (setting [1]) turned out to be 73 nM; at orexin-1 (setting [2]) it was 99 nM.
Consider `Cc1ccc(-n2nccn2)c(C(=O)N2CCC[C@H]2c2nc(-c3ccccc3OC(F)(F)F)no2)n1` [compound 159, (6-Methyl-3-[1,2,3]triazol-2-yl-pyridin-2-yl)-{(S)-2-[3-(2-trifluoromethoxy-phenyl)-[1,2,4]oxadiazol-5-yl]-pyrrolidin-1-yl}-methanone], for which the IC50 is 71 nM on human orexin-2 receptor (setting [1]) and 88 nM at orexin-1 (setting [2]).
Taken in the same sequence, the figures for `Cc1ccc(-n2cccn2)c(C(=O)N2CCC[C@H]2c2nc(-c3ccccc3OC(F)(F)F)no2)n1` [compound 160, (6-Methyl-3-pyrazol-1-yl-pyridin-2-yl)-{(S)-2-[3-(2-trifluoromethoxy-phenyl)-[1,2,4]oxadiazol-5-yl]-pyrrolidin-1-yl}-methanone] were 212 nM and 238 nM.
With `O=C(c1cc(F)c(F)cc1-n1nccn1)N1CCC[C@H]1c1nc(-c2ccccc2OC(F)(F)F)no1` [compound 161, (4,5-Difluoro-2-[1,2,3]triazol-2-yl-phenyl)-{(S)-2-[3-(2-trifluoromethoxy-phenyl)-[1,2,4]oxadiazol-5-yl]-pyrrolidin-1-yl}-methanone], the IC50 turned out to be 204 nM on human orexin-2 receptor (setting [1]) and 751 nM at orexin-1 (setting [2]).
Taken in the same sequence, the figures for `O=C(c1ccc(F)cc1-n1cccn1)N1CCC[C@H]1c1nc(-c2ccccc2OC(F)(F)F)no1` [compound 162, (4-Fluoro-2-pyrazol-1-yl-phenyl)-{(S)-2-[3-(2-trifluoromethoxy-phenyl)-[1,2,4]oxadiazol-5-yl]-pyrrolidin-1-yl}-methanone] were 347 nM and 818 nM.
On the same counts, the results for `O=C(c1ccc(F)cc1-n1nccn1)N1CCC[C@H]1c1nc(-c2ccccc2OC(F)(F)F)no1` [compound 163, (4-Fluoro-2-[1,2,3]triazol-2-yl-phenyl)-{(S)-2-[3-(2-trifluoromethoxy-phenyl)-[1,2,4]oxadiazol-5-yl]-pyrrolidin-1-yl}-methanone] are 87 nM and 495 nM.
With `O=C(c1cccc(F)c1-n1cccn1)N1CCC[C@H]1c1nc(-c2ccccc2OC(F)(F)F)no1` [compound 164, (3-Fluoro-2-pyrazol-1-yl-phenyl)-{(S)-2-[3-(2-trifluoromethoxy-phenyl)-[1,2,4]oxadiazol-5-yl]-pyrrolidin-1-yl}-methanone], the IC50 worked out at 171 nM at human orexin-2 receptor (setting [1]) and 333 nM at orexin-1 (setting [2]).
On the same counts, the results for `O=C(c1cccc(F)c1-n1nccn1)N1CCC[C@H]1c1nc(-c2ccccc2OC(F)(F)F)no1` [compound 165, (3-Fluoro-2-[1,2,3]triazol-2-yl-phenyl)-{(S)-2-[3-(2-trifluoromethoxy-phenyl)-[1,2,4]oxadiazol-5-yl]-pyrrolidin-1-yl}-methanone] are 79 nM and 286 nM.
As for `O=C(c1cc(F)ccc1-c1ccn[nH]1)N1CCC[C@H]1c1nc(-c2ccccc2OC(F)(F)F)no1` [compound 167, [5-Fluoro-2-(2H-pyrazol-3-yl)-phenyl]-{(S)-2-[3-(2-trifluoromethoxy-phenyl)-[1,2,4]oxadiazol-5-yl]-pyrrolidin-1-yl}-methanone], the IC50 on human orexin-2 receptor (setting [1]) is 43 nM; on orexin-1 (setting [2]), 114 nM.
On the same counts, the results for `O=C(c1cccc(F)c1-c1ccn[nH]1)N1CCC[C@H]1c1nc(-c2ccccc2OC(F)(F)F)no1` [compound 168, [3-Fluoro-2-(2H-pyrazol-3-yl)-phenyl]-{(S)-2-[3-(2-trifluoromethoxy-phenyl)-[1,2,4]oxadiazol-5-yl]-pyrrolidin-1-yl}-methanone] are 10 nM and 27 nM.
On the same counts, the results for `COc1ccc(C(=O)N2CCC[C@H]2c2nc(-c3ccccc3OC(F)(F)F)no2)c(-n2nccn2)c1` [compound 169, (4-Methoxy-2-[1,2,3]triazol-2-yl-phenyl)-{(S)-2-[3-(2-trifluoromethoxy-phenyl)-[1,2,4]oxadiazol-5-yl]-pyrrolidin-1-yl}-methanone] are 90 nM and 137 nM.
`Cc1cc(C)c(-n2nccn2)c(C(=O)N2CCC[C@H]2c2nc(-c3ccccc3OC(F)(F)F)no2)c1` [compound 170, (3,5-Dimethyl-2-[1,2,3]triazol-2-yl-phenyl)-{(S)-2-[3-(2-trifluoromethoxy-phenyl)-[1,2,4]oxadiazol-5-yl]-pyrrolidin-1-yl}-methanone]: the results for the IC50 on human orexin-2 receptor (setting [1]) and at orexin-1 (setting [2]) were 35 nM and 55 nM, respectively.
On the same counts, the results for `O=C(c1ccccc1-c1ncco1)N1CCC[C@H]1c1nc(-c2ccccc2OC(F)(F)F)no1` [compound 171, (2-Oxazol-2-yl-phenyl)-{(S)-2-[3-(2-trifluoromethoxy-phenyl)-[1,2,4]oxadiazol-5-yl]-pyrrolidin-1-yl}-methanone] are 30 nM and 104 nM.
On to `O=C(c1ccc(Cl)cc1-n1nccn1)N1CCC[C@H]1c1nc(-c2ccccc2OC(F)(F)F)no1` [compound 172], for which the IC50 turned out to be 18 nM at human orexin-2 receptor and 56 nM on orexin-1 (setting [2]).
Take `O=C(c1ccc(C(F)(F)F)cc1-n1nccn1)N1CCC[C@H]1c1nc(-c2ccccc2OC(F)(F)F)no1` [compound 173, (2-[1,2,3]Triazol-2-yl-4-trifluoromethyl-phenyl)-{(S)-2-[3-(2-trifluoromethoxy-phenyl)-[1,2,4]oxadiazol-5-yl]-pyrrolidin-1-yl}-methanone]: the results for the IC50 on human orexin-2 receptor (setting [1]) and at orexin-1 (setting [2]) were 116 nM and 132 nM, respectively.
Taken in the same sequence, the figures for `COc1cc(C(=O)N2CCC[C@H]2c2nc(-c3ccccc3OC(F)(F)F)no2)c(-n2nccn2)cc1F` [compound 174, (4-Fluoro-5-methoxy-2-[1,2,3]triazol-2-yl-phenyl)-{(S)-2-[3-(2-trifluoromethoxy-phenyl)-[1,2,4]oxadiazol-5-yl]-pyrrolidin-1-yl}-methanone] were 70 nM and 174 nM.
On the same counts, the results for `Cc1ccc(-c2ncco2)c(C(=O)N2CCC[C@H]2c2nc(-c3ccccc3OC(F)(F)F)no2)c1` [compound 175, (5-Methyl-2-oxazol-2-yl-phenyl)-{(S)-2-[3-(2-trifluoromethoxy-phenyl)-[1,2,4]oxadiazol-5-yl]-pyrrolidin-1-yl}-methanone] are 12 nM and 14 nM.
Taken in the same sequence, the figures for `Cc1cc(F)cc(C(=O)N2CCC[C@H]2c2nc(-c3ccccc3OC(F)(F)F)no2)c1-n1nccn1` [compound 176, (5-Fluoro-3-methyl-2-[1,2,3]triazol-2-yl-phenyl)-{(S)-2-[3-(2-trifluoromethoxy-phenyl)-[1,2,4]oxadiazol-5-yl]-pyrrolidin-1-yl}-methanone] were 151 nM and 258 nM.
On to `COc1cc(C(=O)N2CCC[C@H]2c2nc(-c3ccccc3OC(F)(F)F)no2)c(-n2nccn2)cc1OC` [compound 177, (4,5-Dimethoxy-2-[1,2,3]triazol-2-yl-phenyl)-{(S)-2-[3-(2-trifluoromethoxy-phenyl)-[1,2,4]oxadiazol-5-yl]-pyrrolidin-1-yl}-methanone], for which the IC50 was found to be 140 nM on human orexin-2 receptor (setting [1]) and 126 nM at orexin-1 (setting [2]).
On the same counts, the results for `O=C(c1ccccc1-n1nccn1)N1CCC[C@H]1c1nc(-c2ccccc2C(F)(F)F)no1` [compound 178, (2-[1,2,3]Triazol-2-yl-phenyl)-{(S)-2-[3-(2-trifluoromethyl-phenyl)-[1,2,4]oxadiazol-5-yl]-pyrrolidin-1-yl}-methanone] are 132 nM and 549 nM.
For `O=C(c1cc(Cl)ccc1-n1nccn1)N1CCC[C@H]1c1nc(-c2ccccc2C(F)(F)F)no1` [compound 179], the half-inhibitory concentration (IC50) is 189 nM on human orexin-2 receptor (setting [1]) and 371 nM at orexin-1.
Consider `Cc1ccc(C(=O)N2CCC[C@H]2c2nc(-c3ccccc3C(F)(F)F)no2)c(-n2nccn2)c1` [compound 180, (4-Methyl-2-[1,2,3]triazol-2-yl-phenyl)-{(S)-2-[3-(2-trifluoromethyl-phenyl)-[1,2,4]oxadiazol-5-yl]-pyrrolidin-1-yl}-methanone], for which the IC50 turned out to be 126 nM on human orexin-2 receptor (setting [1]) and 183 nM on orexin-1 (setting [2]).
Taken in the same sequence, the figures for `Cc1cc(C(=O)N2CCC[C@H]2c2nc(-c3ccccc3C(F)(F)F)no2)c(-n2nccn2)cc1C` [compound 181, (4,5-Dimethyl-2-[1,2,3]triazol-2-yl-phenyl)-{(S)-2-[3-(2-trifluoromethyl-phenyl)-[1,2,4]oxadiazol-5-yl]-pyrrolidin-1-yl}-methanone] were 37 nM and 86 nM.
